Columns and labels:
Type in all cases: in vivo
[1] = test system: duck salad (Heteranthera limosa); experiment: Test D flooded paddy test, visual plant response rating; conditions: 250 g ai/ha, scale 0 to 100 (0 no effect, 100 complete control), 13 to 15 d
Summary of the method: (§1)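 Plants grown to the 2-leaf stage; pots flooded to 3 cm above soil and compound applied directly into paddy water, depth held throughout. Kept in greenhouse 13 to 15 d, then rated visually against untreated controls on a 0–100 scale (0 no effect, 100 complete control).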

[2] = test system: barnyardgrass (Echinochloa crus-galli); experiment: as above; conditions: 250 g ai/ha, scale 0 to 100 (0 no effect, 100 complete control), 13 to 15 d
Summary of the method: as §1

[3] = test system: sedge umbrella (small-flower umbrella sedge, Cyperus difformis); experiment: as above; conditions: 250 g ai/ha, scale 0 to 100 (0 no effect, 100 complete control), 13 to 15 d
Summary of the method: as §1

rice (Oryza sativa) = experiment: as above; conditions: 250 g ai/ha, scale 0 to 100 (0 no effect, 100 complete control), 13 to 15 d
Summary of the method: as §1

[4] = test system: ragweed (common ragweed, Ambrosia artemisiifolia); experiment: Test C preemergence, visual plant response rating; conditions: Test C, 0 is no effect, 100 is complete control
Summary of the method: (§2)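 Seeds sown in a loam–sand blend got a directed preemergence soil spray; postemergence plants (2–10 cm, one- to two-leaf stage) were sprayed with compound in a non-phytotoxic solvent plus surfactant. Injury was scored visually against untreated controls after about 10 d in a greenhouse on a 0–100 scale (100 = complete control).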

[5] = test system: barnyardgrass (Echinochloa crus-galli); experiment: Test C preemergence, visual plant response rating; conditions: Test C, 0 is no effect, 100 is complete control
Summary of the method: as §2

[6] = test system: foxtail, giant (giant foxtail, Setaria faberi); experiment: Test C preemergence, visual plant response rating; conditions: Test C, 0 is no effect, 100 is complete control
Summary of the method: as §2

[7] = test system: Italian ryegrass (Lolium mutiflorum); experiment: Test C preemergence, visual plant response rating; conditions: Test C, 0 is no effect, 100 is complete control
Summary of the method: as §2

[8] = test system: pigweed (Amaranthus retroflexus); experiment: Test C preemergence, visual plant response rating; conditions: Test C, 0 is no effect, 100 is complete control
Summary of the method: as §2

kochia (Bassia scoparia) [9] = experiment: Test C preemergence, visual plant response rating; conditions: Test C, 0 is no effect, 100 is complete control
Summary of the method: as §2

[10] = test system: wheat (Triticum aestivum); experiment: Test C postemergence, visual plant response rating
Summary of the method: as §2

[11] = test system: ragweed (common ragweed, Ambrosia artemisiifolia); experiment: Test C postemergence, visual plant response rating
Summary of the method: as §2

[12] = test system: barnyardgrass (Echinochloa crus-galli); experiment: Test C postemergence, visual plant response rating
Summary of the method: as §2

[13] = test system: galium (catchweed bedstraw, Galium aparine); experiment: Test C postemergence, visual plant response rating
Summary of the method: as §2

[14] = test system: blackgrass (Alopecurus myosuroides); experiment: Test C postemergence, visual plant response rating
Summary of the method: as §2

corn (Zea mays) = experiment: Test C postemergence, visual plant response rating
Summary of the method: as §2

[15] = test system: foxtail, giant (giant foxtail, Setaria faberi); experiment: Test C postemergence, visual plant response rating
Summary of the method: as §2

[16] = test system: Italian ryegrass (Lolium mutiflorum); experiment: Test C postemergence, visual plant response rating
Summary of the method: as §2

[17] = test system: pigweed (Amaranthus retroflexus); experiment: Test C postemergence, visual plant response rating
Summary of the method: as §2

kochia (Bassia scoparia) [18] = experiment: Test C postemergence, visual plant response rating
Summary of the method: as §2

[19] = Test C, postemergence, 125 g ai/ha

| Structure (SMILES) | Plant response rating, Ducksalad (Flood) [1] | Plant response rating, Barnyardgrass (Flood) [2] | Plant response rating, Sedge, Umbrella (Flood) [3] | Plant response rating, Rice (Flood) (rice (Oryza sativa)) | Ragweed plant response rating (0 to 100 scale) ([4]; 31 g ai/ha) | Ragweed plant response rating (0 to 100 scale) ([4]; 125 g ai/ha) | Barnyardgrass plant response rating (0 to 100 scale) ([5]; 31 g ai/ha) | Barnyardgrass plant response rating (0 to 100 scale) ([5]; 125 g ai/ha) | Foxtail, Giant plant response rating (0 to 100 scale) ([6]; 31 g ai/ha) | Foxtail, Giant plant response rating (0 to 100 scale) ([6]; 125 g ai/ha) | Ryegrass, Italian plant response rating (0 to 100 scale) ([7]; 31 g ai/ha) | Ryegrass, Italian plant response rating (0 to 100 scale) ([7]; 125 g ai/ha) | Pigweed plant response rating (0 to 100 scale) ([8]; 31 g ai/ha) | Pigweed plant response rating (0 to 100 scale) ([8]; 125 g ai/ha) | Kochia plant response rating (0 to 100 scale) (kochia (Bassia scoparia) [9]; 31 g ai/ha) | Kochia plant response rating (0 to 100 scale) (kochia (Bassia scoparia) [9]; 125 g ai/ha) | Wheat plant response rating (0 to 100 scale) ([10]; Postemergence, 31 g ai/ha) | Wheat plant response rating (0 to 100 scale) [10, 19] | Ragweed plant response rating (0 to 100 scale) ([11]; Postemergence, 31 g ai/ha) | Ragweed plant response rating (0 to 100 scale) [11, 19] | other results |
| --- | --- | --- | --- | --- | --- | --- | --- | --- | --- | --- | --- | --- | --- | --- | --- | --- | --- | --- | --- | --- | --- |
| CC(C)O/N=C(\c1c(O)c(Cl)nn(C)c1=O)c1ccc(F)c2ccccc12 [Compound 210] | 45 | 0 | 90 | 0 | 0 | 90 | 30 | 80 | 90 | 100 | 0 | 20 | 30 | 100 | 0 | 0 | 0 | 0 | 90 | 90 | Barnyardgrass plant response rating (0 to 100 scale) ([12]; Postemergence, 31 g ai/ha): 40; Barnyardgrass plant response rating (0 to 100 scale) [12, 19]: 70; Galium plant response rating (0 to 100 scale) ([13]; Postemergence, 31 g ai/ha): 90; Galium plant response rating (0 to 100 scale) [13, 19]: 100; Blackgrass plant response rating (0 to 100 scale) ([14]; Postemergence, 31 g ai/ha): 0; Blackgrass plant response rating (0 to 100 scale) [14, 19]: 30; Corn plant response rating (0 to 100 scale) (corn (Zea mays); Postemergence, 31 g ai/ha): 20; Corn plant response rating (0 to 100 scale) (corn (Zea mays); [19]): 20; Foxtail, Giant plant response rating (0 to 100 scale) ([15]; Postemergence, 31 g ai/ha): 70; Foxtail, Giant plant response rating (0 to 100 scale) [15, 19]: 90; Ryegrass, Italian plant response rating (0 to 100 scale) ([16]; Postemergence, 31 g ai/ha): 0; Ryegrass, Italian plant response rating (0 to 100 scale) [16, 19]: 20; Pigweed plant response rating (0 to 100 scale) ([17]; Postemergence, 31 g ai/ha): 40; Pigweed plant response rating (0 to 100 scale) [17, 19]: 100; Kochia plant response rating (0 to 100 scale) (kochia (Bassia scoparia) [18]; Postemergence, 31 g ai/ha): 30; Kochia plant response rating (0 to 100 scale) (kochia (Bassia scoparia) [18]; [19]): 40 |
| CCO/N=C(/c1c(O)c(Cl)nn(C)c1=O)c1ccc(F)c2ccccc12 [Compound 211] | 0 | 0 | 0 | 0 | 40 | 100 | 50 | 90 | 70 | 90 | 30 | 80 | 70 | 90 | 0 | 60 | 0 | 40 | 80 | 80 | Barnyardgrass plant response rating (0 to 100 scale) ([12]; Postemergence, 31 g ai/ha): 30; Barnyardgrass plant response rating (0 to 100 scale) [12, 19]: 70; Galium plant response rating (0 to 100 scale) ([13]; Postemergence, 31 g ai/ha): 100; Galium plant response rating (0 to 100 scale) [13, 19]: 100; Blackgrass plant response rating (0 to 100 scale) ([14]; Postemergence, 31 g ai/ha): 30; Blackgrass plant response rating (0 to 100 scale) [14, 19]: 30; Corn plant response rating (0 to 100 scale) (corn (Zea mays); Postemergence, 31 g ai/ha): 30; Corn plant response rating (0 to 100 scale) (corn (Zea mays); [19]): 20; Foxtail, Giant plant response rating (0 to 100 scale) ([15]; Postemergence, 31 g ai/ha): 60; Foxtail, Giant plant response rating (0 to 100 scale) [15, 19]: 90; Ryegrass, Italian plant response rating (0 to 100 scale) ([16]; Postemergence, 31 g ai/ha): 30; Ryegrass, Italian plant response rating (0 to 100 scale) [16, 19]: 80; Pigweed plant response rating (0 to 100 scale) ([17]; Postemergence, 31 g ai/ha): 70; Pigweed plant response rating (0 to 100 scale) [17, 19]: 100; Kochia plant response rating (0 to 100 scale) (kochia (Bassia scoparia) [18]; Postemergence, 31 g ai/ha): 50; Kochia plant response rating (0 to 100 scale) (kochia (Bassia scoparia) [18]; [19]): 90 |
| CCO/N=C(\c1c(O)c(Cl)nn(C)c1=O)c1ccc(F)c2ccccc12 [Compound 212] | 60 | 20 | 65 | 0 | 10 | 100 | 40 | 80 | 80 | 100 | 0 | 30 | 10 | 100 | 0 | 20 | 0 | 0 | 100 | 90 | Barnyardgrass plant response rating (0 to 100 scale) ([12]; Postemergence, 31 g ai/ha): 50; Barnyardgrass plant response rating (0 to 100 scale) [12, 19]: 70; Galium plant response rating (0 to 100 scale) ([13]; Postemergence, 31 g ai/ha): 90; Galium plant response rating (0 to 100 scale) [13, 19]: 100; Blackgrass plant response rating (0 to 100 scale) ([14]; Postemergence, 31 g ai/ha): 0; Blackgrass plant response rating (0 to 100 scale) [14, 19]: 0; Corn plant response rating (0 to 100 scale) (corn (Zea mays); Postemergence, 31 g ai/ha): 0; Corn plant response rating (0 to 100 scale) (corn (Zea mays); [19]): 0; Foxtail, Giant plant response rating (0 to 100 scale) ([15]; Postemergence, 31 g ai/ha): 50; Foxtail, Giant plant response rating (0 to 100 scale) [15, 19]: 80; Ryegrass, Italian plant response rating (0 to 100 scale) ([16]; Postemergence, 31 g ai/ha): 10; Ryegrass, Italian plant response rating (0 to 100 scale) [16, 19]: 80; Pigweed plant response rating (0 to 100 scale) ([17]; Postemergence, 31 g ai/ha): 50; Pigweed plant response rating (0 to 100 scale) [17, 19]: 90; Kochia plant response rating (0 to 100 scale) (kochia (Bassia scoparia) [18]; Postemergence, 31 g ai/ha): 50; Kochia plant response rating (0 to 100 scale) (kochia (Bassia scoparia) [18]; [19]): 50 |
| CON=C(c1cc(Cl)cc(Cl)c1Cl)c1c(O)c(C)nn(C)c1=O [Compound 213] | 70 | 70 | 90 | 40 | 70 | 100 | 70 | 90 | 60 | 80 | 70 | 100 | 100 | 100 | 20 | 80 | 40 | 60 | 70 | 80 | Barnyardgrass plant response rating (0 to 100 scale) ([12]; Postemergence, 31 g ai/ha): 80; Barnyardgrass plant response rating (0 to 100 scale) [12, 19]: 80; Galium plant response rating (0 to 100 scale) ([13]; Postemergence, 31 g ai/ha): 90; Galium plant response rating (0 to 100 scale) [13, 19]: 90; Blackgrass plant response rating (0 to 100 scale) ([14]; Postemergence, 31 g ai/ha): 30; Blackgrass plant response rating (0 to 100 scale) [14, 19]: 80; Corn plant response rating (0 to 100 scale) (corn (Zea mays); Postemergence, 31 g ai/ha): 20; Corn plant response rating (0 to 100 scale) (corn (Zea mays); [19]): 40; Foxtail, Giant plant response rating (0 to 100 scale) ([15]; Postemergence, 31 g ai/ha): 70; Foxtail, Giant plant response rating (0 to 100 scale) [15, 19]: 80; Ryegrass, Italian plant response rating (0 to 100 scale) ([16]; Postemergence, 31 g ai/ha): 90; Ryegrass, Italian plant response rating (0 to 100 scale) [16, 19]: 100; Pigweed plant response rating (0 to 100 scale) ([17]; Postemergence, 31 g ai/ha): 80; Pigweed plant response rating (0 to 100 scale) [17, 19]: 90; Kochia plant response rating (0 to 100 scale) (kochia (Bassia scoparia) [18]; Postemergence, 31 g ai/ha): 60; Kochia plant response rating (0 to 100 scale) (kochia (Bassia scoparia) [18]; [19]): 70 |
